This is an account of results in patent US11840686B2, “Modulation of prekallikrein (PKK) expression” (Ionis Pharmaceuticals, Inc., priority 2013, dated 2023).

Broadly, the % inhibition is the relative decrease from the control value, in per cent. A low value points to a weak effect.

Strand notation (5' to 3'): a small letter for the sugar, then the base; units joined by * are phosphorothioate-linked, units joined directly phosphodiester-linked; [ ] holds rarer units or linkages, { } end groups; capitals alone tell only the bases. e = 2'-O-(2-methoxyethyl) (MOE); k = constrained ethyl (cEt); [5mC] = 5-methylcytosine; d = 2'-deoxy (DNA)

This series has as its system human PKK mRNA. Kind of series: Antisense inhibition of human PKK mRNA in HepaRG cells, 1,000 nM, MOE/deoxy/cEt oligonucleotides (Example 3). In kind it is cell-based. As to the method: Additional antisense oligonucleotides were designed targeting a PKK nucleic acid and were tested for their effects on PKK mRNA in vitro.
The chimeric antisense oligonucleotides in the tables below were designed as deoxy, MOE and cEt gapmers. The gapmers are 16 nucleosides in length wherein the nucleoside have either a MOE sugar modification, a cEt sugar modification, or a deoxy modification. The ‘Chemistry’ column describes the sugar modifications of each oligonucleotide. ‘k’ indicates an cEt sugar modification; the number indicates the number of deoxynucleosides; otherwise, indicates a deoxynucleoside; and ‘e’ indicates a 2′-O-methoxyethyl modification. The internucleoside linkages throughout each gapmer are phosphorothioate linkages. All cytosine residues throughout each oligonucleotide are 5-methylcytosines. “Start site” indicates the 5′-most nucleoside to which the gapmer is targeted in the human gene sequence. “Stop site” indicates the 3′-most nucleoside to which the gapmer is targeted in the human gene sequence.
Cultured HepaRG™ cells at a density of 20,000 cells per well were transfected using electroporation with 1,000 nM antisense oligonucleotide. After a treatment period of approximately 24 hours, RNA was isolated from the cells and PKK mRNA levels were measured by quantitative real-time PCR. Human primer probe set RTS3454 was used to measure mRNA levels. ISIS 531231 was also included in this assay. PKK mRNA levels were adjusted according to total RNA content, as measured by RIBOGREEN®. The antisense oligonucleotides were tested in a series of experiments that had similar culture conditions. Results are presented as percent inhibition of PKK, relative to untreated control cells.

The mark [1] stands for this setting: HepaRG cells, electroporation with 1,000 nM antisense oligonucleotide, approx. 24 hours, PKK mRNA by RT-PCR (RTS3454), relative to untreated control cells, Table 26 experiment.
[2] abbreviates: Table 28, HepaRG cells, 1,000 nM antisense oligonucleotide, human PKK mRNA.
Setting [3] is: HepaRG cells, electroporation with 1,000 nM antisense oligonucleotide, approximately 24 hours, primer probe set RTS3454, relative to untreated control cells, experiment of Table 24.
[4] abbreviates: HepaRG cells, electroporation with 1,000 nM antisense oligonucleotide, approx. 24 hours, PKK mRNA by RT-PCR (RTS3454), relative to untreated control cells, Table 25 experiment.
[5] abbreviates: Table 27, HepaRG cells, 1,000 nM antisense oligonucleotide, human PKK mRNA.
Setting [6] is: Table 21 experiment, HepaRG cells, electroporation with 1,000 nM antisense oligonucleotide, approx. 24 hours, PKK mRNA by RT-PCR (RTS3454), relative to untreated control cells.
The mark [7] stands for this setting: HepaRG cells, electroporation with 1,000 nM antisense oligonucleotide, approximately 24 hours, primer probe set RTS3454, relative to untreated control cells, experiment of Table 23.
[8] abbreviates: Table 30, human PKK mRNA, HepaRG cells, 1,000 nM antisense oligonucleotide.
Where [9] appears, read: Table 19, HepaRG cells, electroporation with 1,000 nM antisense oligonucleotide, approximately 24 hours, PKK mRNA by RT-PCR (RTS3454), relative to untreated control cells.

“548252 (antisense eA*e[5mC]*kT*d[5mC]*dG*d[5mC]*d[5mC]*dT*dT*dT*dG*dT*dG*kA*kT*eG) [compound 548252]”: under setting [1], the “% inhibition” value was determined as 33%. Same read-out and setting: as for “548230 (eT*eA*k[5mC]*dT*d[5mC]*dA*dT*dT*dG*dT*dT*dG*dT*kG*kT*eG; antisense) [compound 548230]”, the figure is 10%. On to “548484 (e[5mC]*e[5mC]*k[5mC]*d[5mC]*dG*dG*dA*dG*d[5mC]*dA*d[5mC]*d[5mC]*dT*kT*k[5mC]*eA; antisense) [compound 548484]”, for which the “% inhibition” value under setting [2] is reported as 41%. On the same count and under the same terms, as for “548527 (antisense eT*eG*kT*dT*dT*d[5mC]*dA*dA*dG*dT*dG*d[5mC]*d[5mC]*kA*kG*eA) [compound 548527]”, the figure is 50%.

“548072 (eT*eT*kT*d[5mC]*dT*d[5mC]*d[5mC]*dT*dT*d[5mC]*dG*dA*dG*kA*kA*eG; antisense) [compound 548072]”: under setting [3], the “% inhibition” value was determined as 33%. Consider “548279 (antisense e[5mC]*eA*k[5mC]*d[5mC]*dT*dA*dG*dA*dA*d[5mC]*dT*dA*dT*k[5mC]*k[5mC]*eA) [compound 548279]”, for which, under setting [1], the “% inhibition” value stood at 39%.

Take “548524 (antisense eG*e[5mC]*k[5mC]*d[5mC]*dG*dA*dT*d[5mC]*dA*d[5mC]*d[5mC]*dT*dT*kA*kG*eA) [compound 548524]”: the “% inhibition” value under setting [2] is reported as 45%. “548067 (e[5mC]*eA*kG*dT*dT*dG*dG*dT*dA*dT*dA*dA*dA*kT*kT*eG; antisense) [compound 548067]”: the “% inhibition” value under setting [3] was 18%. “548173 (e[5mC]*eT*k[5mC]*dA*dG*dT*dT*dG*d[5mC]*dG*dA*d[5mC]*d[5mC]*kT*k[5mC]*eG; antisense) [compound 548173]”: under setting [4], the “% inhibition” value stood at 51%. Regarding “548157 (eA*eT*kT*dG*dT*d[5mC]*dA*dG*d[5mC]*d[5mC]*d[5mC]*d[5mC]*dT*kG*kG*eT; antisense) [compound 548157]”, under setting [4], the “% inhibition” value turned out to be 7%. Regarding “548337 (antisense eT*eA*k[5mC]*d[5mC]*dG*d[5mC]*dT*dG*dG*dG*dT*dG*d[5mC]*kG*kG*eT) [compound 548337]”, under setting [5], the “% inhibition” value is reported as 10%.

In the case of “548487 (eT*e[5mC]*k[5mC]*dA*dT*dG*dT*d[5mC]*dA*dG*dA*dG*dT*kT*kG*e[5mC]; antisense) [compound 548487]”, under setting [2], the “% inhibition” value is given as 71%. “547865 (antisense eA*eA*kA*dA*dT*dT*dG*dA*d[5mC]*dT*d[5mC]*d[5mC]*dT*k[5mC]*kT*e[5mC]) [compound 547865]”: the “% inhibition” value reads like this: (Table 20, HepaRG cells, electroporation with 1,000 nM antisense oligonucleotide, approximately 24 hours, PKK mRNA by RT-PCR (RTS3454), relative to untreated control cells) 3%; (Table 22 experiment, HepaRG cells, electroporation with 1,000 nM antisense oligonucleotide, approx. 24 hours, PKK mRNA by RT-PCR (RTS3454), relative to untreated control cells) 61%. Consider “548014 (eT*eG*kT*d[5mC]*d[5mC]*d[5mC]*d[5mC]*dA*dG*dT*dG*dT*dT*kA*k[5mC]*eA; antisense) [compound 548014]”, for which the “% inhibition” value under setting [3] was 31%. “548476 (eG*e[5mC]*kA*dA*dA*dT*d[5mC]*d[5mC]*dT*dT*d[5mC]*d[5mC]*dA*kG*k[5mC]*eA; antisense) [compound 548476]”: the “% inhibition” value under setting [2] worked out at 27%.

Turning to “548231 (eA*eA*kT*dA*d[5mC]*dT*d[5mC]*dA*dT*dT*dG*dT*dT*kG*kT*eG; antisense) [compound 548231]”, the “% inhibition” value under setting [1] is reported as 11%.

On to “547839 (eG*e[5mC]*kT*dT*d[5mC]*dA*dA*dG*dG*dA*dA*dT*dG*kT*k[5mC]*e[5mC]; antisense) [compound 547839]”, for which, under setting [6], the “% inhibition” value stood at 35%. As to “547962 (antisense eT*eT*kT*dG*d[5mC]*dA*dG*dG*dT*dT*dA*dA*dA*kA*kG*eG) [compound 547962]”, the “% inhibition” value under setting [7] is listed as 16%.

With “548670 (antisense eG*eA*kA*dA*dA*dG*d[5mC]*d[5mC]*d[5mC]*dT*d[5mC]*d[5mC]*dG*kA*kG*e[5mC]) [compound 548670]”, the “% inhibition” value (PKK mRNA, HepaRG cells, 1,000 nM antisense oligonucleotide, Table 31) is on record as 15%.

On to “548438 (antisense e[5mC]*eT*kA*dT*dA*dT*d[5mC]*dA*d[5mC]*dT*dG*dT*dA*k[5mC]*k[5mC]*eT) [compound 548438]”, for which the “% inhibition” value under setting [8] is 38%.

With “547994 (antisense e[5mC]*e[5mC]*kA*dT*d[5mC]*d[5mC]*dA*dT*dA*dG*dA*dT*dA*kA*kT*e[5mC]) [compound 547994]”, the “% inhibition” value under setting [7] is reported as 53%.

For the substance “548242 (eG*e[5mC]*kA*dT*dA*d[5mC]*dT*d[5mC]*dG*d[5mC]*d[5mC]*dT*dT*kT*kG*eT; antisense) [compound 548242]”, under setting [1], the “% inhibition” value is on record as 25%. Turning to “548011 (e[5mC]*e[5mC]*kA*dG*dT*dG*dT*dT*dA*d[5mC]*dA*d[5mC]*dA*kA*kT*e[5mC]; antisense) [compound 548011]”, the “% inhibition” value under setting [3] is reported as 14%. Consider “548397 (eG*eG*kA*dG*d[5mC]*dA*dG*dT*dG*d[5mC]*dA*dG*dG*kT*kA*eA; antisense) [compound 548397]”, for which, under setting [8], the “% inhibition” value is 1%. “548097 (antisense eT*eG*k[5mC]*dT*d[5mC]*d[5mC]*d[5mC]*dT*dG*d[5mC]*dG*dG*dG*k[5mC]*kA*e[5mC]) [compound 548097]”: the “% inhibition” value under setting [9] is 2%. Consider “547978 (antisense e[5mC]*eT*kT*dG*dG*d[5mC]*dA*dA*dA*d[5mC]*dA*dT*dT*k[5mC]*kA*e[5mC]) [compound 547978]”, for which, under setting [7], the “% inhibition” value stood at 71%. Regarding “548250 (antisense e[5mC]*eT*kT*dT*dG*dT*dG*dA*dT*dG*d[5mC]*dG*dA*kT*kT*eT) [compound 548250]”, the “% inhibition” value under setting [1] amounted to 0%. Turning to “548064 (eT*eG*kG*dT*dA*dT*dA*dA*dA*dT*dT*dG*dT*kG*k[5mC]*eT; antisense) [compound 548064]”, the “% inhibition” value under setting [3] was 54%. “548367 (antisense eG*eT*kT*d[5mC]*dT*dT*dG*dA*dG*dT*dG*dT*dA*kG*kA*eG) [compound 548367]”: under setting [5], the “% inhibition” value is listed as 52%. Same read-out and setting: as for “548327 (e[5mC]*eT*kA*d[5mC]*dA*d[5mC]*d[5mC]*dT*dT*dT*d[5mC]*dT*dG*k[5mC]*kA*e[5mC]; antisense) [compound 548327]”, the figure is 6%. In the case of “547813 (eG*eG*kT*dG*dG*dA*dA*dT*dG*dT*dG*d[5mC]*dA*k[5mC]*k[5mC]*eT; antisense) [compound 547813]”, the “% inhibition” value under setting [6] is recorded as 34%.

In the case of “548036 (e[5mC]*e[5mC]*kA*d[5mC]*dT*dA*dT*dA*dG*dA*dT*dG*d[5mC]*kG*k[5mC]*e[5mC]; antisense) [compound 548036]”, under setting [3], the “% inhibition” value was found to be 74%.

Take “548110 (antisense eT*eG*k[5mC]*dA*dT*d[5mC]*dT*dG*dA*dG*d[5mC]*dT*dT*kT*kT*e[5mC]) [compound 548110]”: the “% inhibition” value under setting [9] is listed as 62%. On to “548592 (e[5mC]*eT*k[5mC]*dA*d[5mC]*d[5mC]*dA*dG*dA*dG*dT*dT*dG*kT*k[5mC]*e[5mC]; antisense) [compound 548592]”, for which the “% inhibition” value (HepaRG cells, 1,000 nM antisense oligonucleotide, Table 29) stood at 7%. “548191 (eG*eT*k[5mC]*dA*dA*d[5mC]*dA*dT*dA*dT*dT*d[5mC]*d[5mC]*kA*kT*eG; antisense) [compound 548191]”: the “% inhibition” value under setting [4] was found to be 0%. As for “548326 (eT*e[5mC]*k[5mC]*dT*dG*dT*dG*dA*d[5mC]*dA*dG*dA*dA*k[5mC]*k[5mC]*eA; antisense) [compound 548326]”, the “% inhibition” value under setting [5] was determined as 27%.

As to “548026 (eG*eT*k[5mC]*d[5mC]*dT*dA*dT*dG*dA*dG*dT*dG*dA*k[5mC]*k[5mC]*e[5mC]; antisense) [compound 548026]”, the “% inhibition” value under setting [3] worked out at 52%.
